{"source": "paper PMC11514582", "about": "“Leveraging the Aggregated Protein Dye YAT2150 for Malaria Chemotherapy” (Pharmaceutics, 2024)", "key": {"[1]": {"experiment": "Cytotoxicity assay in HUVEC (resazurin)", "type": "cell-based", "details": "human, read-out: HUVEC inhibition (CC50)"}, "[2]": {"experiment": "Cytotoxicity assay in NCI-H460 (MTT)", "type": "cell-based", "details": "human, NCI-H460 cells, read-out: NCI-H460 inhibition (CC50)", "experimental": "THP-1 human acute monocytic leukemia cells and NCI-H460 human lung carcinoma cells were grown in RPMI supplemented with 10% FBS. Hep-G2 human hepatocellular carcinoma cells were cultured in Eagle’s minimum essential medium (EMEM) supplemented with 10% FBS. A2780 human ovarian carcinoma cells were grown in RPMI supplemented with 10% FBS and 2 mM L-glutamine. MCF-7 human breast adenocarcinoma cells were cultured in EMEM containing 2 mM L-glutamine and Earle’s balanced salt solution adjusted with 1.5 g/L sodium bicarbonate, 0.1 mM non-essential amino acids, and 1 mM sodium pyruvate and supplemented with 10% FBS. […] Except for Caco-2 and HUVEC, inhibition of cell growth was evaluated using a protocol based on monitoring the transformation into formazan of the tetrazolium salt of MTT (3-(4,5-dimethylthiazol-2-yl)-2,5-diphenyltretrazolium bromide) by metabolically active cells. […] After 96 further h of incubation in the same conditions, 10 µL of a 5 mg/mL MTT solution in PBS was added to each sample, and the incubation was resumed for another 4 h. […] The absorbance measurement range was framed between one sample containing 4000 cells in plain growth medium (to determine the stable cell concentration) and another sample containing an equal cell number in growth medium supplemented with growth factors (to measure the maximum cell growth at 96 h)."}, "C. elegans": {"tested_on": "C. elegans", "experiment": "In vivo toxicity in C. elegans", "parameters": "species or system Caenorhabditis elegans", "details": "non-encapsulated, 50 µM", "method": "(§1) The Caenorhabditis elegans N2 Bristol strain (kindly provided by Dr. Christian Griñán-Ferré) was cultured, following established methods, in 90 mm Petri dishes containing solid Nematode Growth Media (NGM) seeded with E. coli OP50 (100 µL of an overnight culture spread on top of the NGM), maintained at 20 °C, and expanded to new plates once a week by transferring a 1-cm^3 NGM cube to a new plate. […] To do this, a plate with gravid adult worms was washed twice with 5 mL of M9 buffer (20 mM KH2PO4, 42 mM Na2HPO4, 86 mM NaCl, 1 mM MgSO4), and the nematodes were transferred to a 15-mL conical tube, where they were pelleted (400× g, 2 min). […] C. elegans viability and body length were analyzed after 48 h under a stereomicroscope (Leica M50 Routine Stereo Microscope; Leica Microsystems GmbH), taking representative images and videos with a 4× objective. C. elegans viability was determined in three experimentally independent replicas according to two variables: body shape (stiff, rod-like worms were counted as dead, as opposite to s-shaped live worms) and presence of movement in living C. elegans, with an n ≥ 100 worms/sample. Nematode body length was calculated with ImageJ software in worms anesthetized with 50 mM sodium azide. Statistically significant differences between groups were determined by the two-way analysis of variance (ANOVA) using GraphPad Prism 9.0.1."}, "[3]": {"experiment": "In vivo toxicity in C. elegans", "parameters": "species or system Caenorhabditis elegans", "details": "N2 Bristol, Caenorhabditis elegans, in vivo; 48 h, viability", "method": "as §1"}, "[4]": {"tested_on": "P. falciparum asexual blood stages", "details": "CC50 in HUVEC / IC50 two-hour incubation in P. falciparum", "experimental": "The asexual blood stages of P. falciparum parasites of the 3D7 strain (Malaria Research and Reference Reagent Resource Center, Manassas, VA, USA) were cultured in group B human RBCs at 3% hematocrit, which was kept throughout the experiments, and incubated in RPMIc. Parasites were maintained at 37 °C under an atmosphere of 5% O2, 5% CO2, and 90% N2. […] The parasites were then cultured under standard conditions for 48 h, allowing for a complete replication cycle. After the incubation period, 3 µL of culture from each well was mixed with 197 µL of PBS containing 0.1 µM Syto 11 (Thermo Fisher Scientific, Inc.) to obtain a final concentration of 1 × 10^6 to 10 × 10^6 cells/mL. Parasitemia levels were measured using an LSRFortessa flow cytometer equipped with a standard configuration of four lasers and 20 parameters. Single-cell populations were identified on a forward-side scatter plot. […] The inhibition data were then transformed using sigmoidal fitting to determine IC50.\nFor stage arrest assays, P. falciparum cultures were tightly synchronized in schizont stages by repeated treatment with 70% Percoll (GE Healthcare, Chicago, IL, USA) [26, 27]. […] Pictures were taken with a Nikon Eclipse 50i microscope equipped with a DS-Fi1 camera (Nikon Corporation, Tokyo, Japan)."}, "3D7 P. falciparum": {"tested_on": "3D7 P. falciparum", "experiment": "Parasite-killing profile (parasite viability after 10x IC50)", "type": "cell-based, Plasmodium falciparum", "details": "treatment for 24 h with 10× IC50", "method": "After the treatment, the drug was removed and the culture diluted 1/3 and re-established in RBCs labeled with carboxyfluorescein diacetate succinimidyl ester (CFDA-SE, Life Technologies) to a 2% hematocrit in order to evaluate the reinfection capacity of the treated parasites. CFDA-SE-labelled erythrocytes were prepared by incubating 1% hematocrit in RPMI containing 10 μM CFDA-SE at 37 °C for 30 min, after which they were washed and maintained at 50% hematocrit at 4 °C for up to 24 h before use. Parasites were grown for 48 h, a complete replication cycle, in standard culturing conditions (5% O2, 5% CO2, and 90% N2 at 37 °C). After this incubation time, parasitemia was assessed by two-color flow cytometry (Attune NxT Flow Cytometer, Thermo Fisher Scientific, Inc.) using Hoechst 33342 to stain nuclei. Hoechst 33342 fluorescence signal was detected by exciting samples at 405 nm and collecting the emission with a 440/50-nm bandpass filter (VL1), whereas CFDA-SE was excited at 488 nm and detected with a 530/30 nm filter. Samples were analyzed using the Attune NxT software package 3.2.1, and parasite viability was plotted as the percentage of infected CFDA-SE-stained erythrocytes, using as reference untreated samples of the initial inoculum after 48 h of incubation with labeled erythrocytes."}}, "data": [{"smiles": "CCN(CC)c1ccc(/C=C/c2cc[n+](CCCCCCCCCC[n+]3ccc(/C=C/c4ccc(N(CC)CC)cc4)c(C)c3)cc2C)cc1", "note": "[YAT2150]", "values": [{"measurement": "CC50 at 48 h", "setting": "[1]", "result": "14.8 ± 3.8", "unit": "µM"}, {"measurement": "CC50 at 96 h", "setting": "[2]", "result": "6.76 ± 0.27", "unit": "µM"}, {"measurement": "nematode survival/length assay observation", "setting": "C. elegans", "result": "No worms could be found"}, {"measurement": "IC50 at 48 h", "setting": "[3]", "result": "16.2 ± 1.4", "unit": "µM"}, {"measurement": "SI (CC50/IC50)", "setting": "[4]", "result": "~66"}, {"measurement": "parasite survival", "setting": "3D7 P. falciparum", "result": 8.5, "unit": "%"}]}]}
